According to patent US11028137B2, “Mutant islet amyloid polypeptides with improved solubility and methods for using the same” (priority 2017, dated 2021):
Where a SMILES comes first, the peptide text is derived from it.

What was measured:
[1] = biological target: T1, human calcitonin receptor (hCT(a)) (Homo sapiens, UniProt P30988); assay: cAMP production (LANCE cAMP assay) in transfected Cos-7 cells; assay type: cell-based; conditions: Cos-7 cells expressing hCT(a); for EC50: cAMP production, mean ± spread, read-out: Human calcitonin receptor binding data pEC50 (converted)
T1 construct: expressed in transfected cells; host or cells: Cos-7 cells, transient transfection with PEI, pcDNA3.1 vectors
T1 sequence (P30988 25-474): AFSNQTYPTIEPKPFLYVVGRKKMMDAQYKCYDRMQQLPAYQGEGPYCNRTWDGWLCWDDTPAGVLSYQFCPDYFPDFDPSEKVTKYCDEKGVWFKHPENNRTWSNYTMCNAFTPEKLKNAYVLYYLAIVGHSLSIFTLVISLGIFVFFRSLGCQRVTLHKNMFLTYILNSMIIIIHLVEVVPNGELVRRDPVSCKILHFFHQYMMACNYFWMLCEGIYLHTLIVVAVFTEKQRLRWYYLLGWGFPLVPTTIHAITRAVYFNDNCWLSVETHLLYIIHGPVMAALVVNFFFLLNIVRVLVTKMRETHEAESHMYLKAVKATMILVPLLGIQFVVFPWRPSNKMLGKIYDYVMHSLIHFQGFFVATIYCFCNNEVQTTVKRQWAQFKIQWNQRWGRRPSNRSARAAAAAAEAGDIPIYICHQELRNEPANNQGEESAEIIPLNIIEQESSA
Experimental: (§1) Cell Culture and Transfection. Cos-7 cells were cultured and transfected for receptor activity assays as previously described in Bailey, R. J., and Hay, D. L. Peptides (2006) 27, pp. 1367-1375, the entire contents of which is incorporated herein by reference. Specifically, cells were cultured in Dulbucco's modified eagle medium (DMEM) with 8% heat-inactivated fetal bovine serum (FBS) and kept in a 37° C. humidified 95% air/5% CO2 incubator. Cells were plated at a density of 18,000-20,000 cells/well (depending on cell passage) in 96-well culture plate and returned to the incubator for approximately 18-24 hours. Transient transfections were carried out using polyethyleneimine (PEI) as described previously and maintained at 37° C. in a humidified 95% air/5% CO2 incubator for 36-48 hours. All DNA constructs used in this these were in pcDNA3.1 vectors.
(§2) cAMP Assay: Measurement of intracellular cAMP was achieved using a time-resolved fluorescent resonance energy transfer assay (LANCE cAMP assay, PerkinElmer), similar to the previously described Alphascreen assay as described in Gingell, J. J., et al. Peptides (2010) 31, pp. 1400-1404, with the following changes. Following stimulation with peptide agonist, cAMP assay media from the wells was thoroughly aspirated and 50 μl of ice-cold absolute ethanol added to each well. Plates were then placed in a −30° C. freezer for 10 minutes or overnight prior to assay, then removed and allowed to air dry in a fume hood for 1-2 hours. After ethanol evaporated from the plates, 50 μl of LANCE detection buffer (lysis buffer, 0.35% Triton X-100, 50 mM HEPES and 10 mM calcium chloride in ddH2O, pH 7.4) was added per well and left on a plate shaker for 10-15 minutes at room temperature. Meanwhile, a cAMP standard curve was generated using LANCE detection buffer and a serially diluted cAMP standard (50 μM) ranging from 1 μM to 10 pM. The serially diluted cAMP standards (5 μl) and cell lysates (5 μl) were transferred into 384-well opti-plates and sealed with a Sealplate®-A-384-well microplate adhesive film and briefly centrifuged (10 seconds, 500 rpm, 23° C.). A 1:200 dilution of LANCE assay Alexa Fluor® 647 anti-cAMP antibody was prepared in detection buffer and 5 μl added to each well. Plates were sealed and briefly centrifuged again (10 seconds, 500 rpm, 23° C.) and left to incubate, sealed for 30 minutes at room temperature. During this incubation, detection mix was made up consisting of detection buffer, Europium-W8044 labelled streptavidin (1:4500) and biotin-cAMP (1:1500). After 30 minutes incubation, 10 μl of detection mix was added to each well, plates were centrifuged (30 seconds, 500 rpm, 23° C.), sealed and left to incubate for 1 hour at room temperature. Plates were read after an overnight incubation on an Envision plate reader. A standard curve was included in each experiment to ensure accurate quantification of cAMP.
(§3) Data Analysis for Receptor Assays: Data were derived from independent experiments for statistical analysis and all experiments were performed and replicated. Quantification of cAMP was obtained from a standard curve included in each experiment and plotted using the software GraphPad Prism 6.0 (GraphPad Software Inc, San Diego, Calif., USA) with a non-linear regression 3-parameter logistic equation with a Hill Slope of 1 to determine the pEC50. The pEC50 values from the fits were combined from different experimental days and statistically tested for difference from the WT peptide using the Student's t-test with statistical significance defined as * p<0.05, ** p<0.01, *** p<0.001. Due to variability in amount of cAMP produced between experimental days, data were normalized to the control peptide for each experiment to obtain Emax values. For each analogue, data were normalized to the maximum (Emax) and minimum (Emin) responses of h-amylin. […]

[2] = biological target: T2, human amylin receptor (hAMY1(a)) (Homo sapiens, UniProt O60894+P30988); assay: as above; assay type: cell-based; conditions: Cos-7 cells expressing hAMY1(a); for EC50: cAMP production, mean ± spread, read-out: Human Amylin1(a) receptor binding data pEC50 (converted)
T2 construct: expressed in transfected cells; host or cells: Cos-7 cells, transient transfection with PEI, pcDNA3.1 vectors
Experimental: as §1, §2, §3

[3] = pH 7
Experimental: 100 μL each solution was obtained immediately following dissolution with Novolin-N® and was centrifuged using a Beckman Coulter Microfuge (22R Centrifuge) at 24° C. for 20 minutes. The relative centrifugal force used was 1.75×104 g. Aliquots of each sample were immediately frozen and lyophilized. The remaining portion of each sample was not centrifuged and were incubated at 25° C. without stirring. Samples were collected again following the same procedures after 1 day, 7 days and 30 days. Dry samples were redissolved in 4:1 HPLC buffer mix (4A:1B, below) and immediately injected for liquid chromatography-mass spectroscopy (LC-MS) measurements. The HPLC buffers were (A) H2O (0.1% acetic acid and 0.02% TFA) and (B) CH3CN (0.1% acetic acid and 0.02% TFA). Solubility of each co-formulated sample was determined by measuring the absorbance from the liquid chromatogram traces at 215±8 nm and at 277±8 nm at each time point tested. points (0 hours, 24 hours, 7 days and 30 days post-formulation).

[4] = Transmission electron microscopy (TEM) of amyloid aggregates; assay type: physicochemical; conditions: after 7 days of incubation, end of kinetic experiment
Experimental: Transmission Electron Microscopy (TEM). TEM images were recorded using an FEI Bio TwinG^2 Transmission Electron Microscope at the central microscopy center at Stony Brook University. 15 μL aliquots of the samples used for fluorescence assays were removed at the end of each kinetic experiment, blotted on a carbon formvar-coated 300-mesh copper grid for 1 min and then negatively stained with saturated uranyl acetate for 1 min. Images were taken at a 68,000× magnification and 100 nm under focus. Mutant-hIAPP polypeptides of the present disclosure were further analyzed using TEM. […] In contrast, no amyloid fibrils were formed after a 1 week (FIGS. 3B-E, left) or 6 week (FIGS. 3B-E, right) culture with the any of the mutant-hIAPP analogs tested.

[5] = pH 7.4
Experimental: Dry peptides were dissolved into 10 mM PBS buffer at pH 7.4 at different initial concentrations, and were incubated for 7 days at 25° C. without stirring. Each sample was then centrifuged using a Beckman Coulter Microfuge 22R Centrifuge at 24° C. for 20 min. The relative centrifugal force used was 1.75×10^4 g. Solubility of each sample was approximated by measuring the absorbance of the corresponding supernatant at 280 nm measured using a Beckman Coulter DU 730 UV/Vis Spectrophotometer.
Each peptide tested was incubated in 10 mM PBS buffer at pH 7.4 for 7 days at three different concentrations (100 μM, 500 μM and 1 mM) and the solution was then centrifuged. The apparent solubility was represented by the absorbance of the supernatant of each sample measured at 280 nm. The extinction coefficients of all polypeptides are very similar at 280 nm since they all contain the same aromatic residues and each contains a disulfide bond. […] A peptide which is soluble at 1 mM and above will show a linear dependence of absorbance on initial concentration. A peptide which is less soluble will deviate from linearity. The peptides were centrifuged after 7 days and their apparent solubility measured by measuring the absorbance at 280 nm of the supernatant of each solution. The apparent concentration refers to the concentration which would be obtained if all of the peptide dissolved. The absorbance of the supernatant is directly proportion to the amount of peptide in solution.

[6] = Thioflavin-T fluorescence assay of amyloid formation kinetics; assay type: physicochemical; conditions: 16 μM peptide, 10 mM PBS pH 7.4, 25° C., no stirring; 1 week and 6 week incubations
Experimental: Sample Preparation. Each peptide was dissolved into 100% hexafluoroisoproponal (HFIP) to make a 0.5 mM stock solution. Stock solutions were filtered using […] Acrodisc syringe filter with a GHP membrane and the required amount of peptide was lyophilized overnight to remove HFIP. Dry peptide was dissolved into the appropriate buffer for the fluorescence assays. Fluorescence Assays. Thioflavin-T binding assays, conducted without HFIP or stirring at 25° C., were utilized to monitor amyloid formation kinetics. Fluorescence measurements were performed using a Spectramax Gemini EM plate reader. Corning 96-well non-binding surface black plates with lids were used and were sealed with polyethylene sealing tape. Samples were prepared by dissolving dry peptide into 10 mM PBS buffer (pH 7.4) and 32 μM thioflavin-T solution immediately before the measurement. Thioflavin-T fluorescence was measured with 450 nm excitation and emission at 485 nm was monitored. The final concentrations were 16 μM peptides. After creating the mutant-hIAPP polypeptides of the present disclosure, applicants tested the propensity of the different analogs to form amyloid at pH 7.4 using thioflavin-T fluorescence assays (FIGS. 2A-D) and TEM (FIGS. 3A-E). […] Amyloid formation follows a sigmoidal time course consisting of a lag phase in which few, if any, fibrils are formed, followed by a growth phase and a saturation phase in which amyloid fibrils are in equilibrium with soluble peptide.

T2 sequence (O60894 27-148 partner, one chain of several): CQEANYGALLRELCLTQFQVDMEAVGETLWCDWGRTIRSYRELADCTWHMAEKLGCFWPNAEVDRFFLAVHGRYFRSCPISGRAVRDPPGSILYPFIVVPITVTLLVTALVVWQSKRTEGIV

| Structure (SMILES) | concentration-response of cAMP production compared with wild-type hIAPP [1] | EC50 [1] | concentration-response of cAMP production compared with wild-type hIAPP [2] | EC50 [2] | solubility co-formulated with Novolin-N (absorbance at 215 nm and 277 nm, LC-MS) [3] | amyloid aggregates in TEM images [4] | solubility at neutral pH (absorbance of supernatant at 280 nm) [5] | amyloid formation monitored by thioflavin-T fluorescence [6] |
| --- | --- | --- | --- | --- | --- | --- | --- | --- |
| CC(C)C[C@H](NC(=O)[C@H](CCCNC(=N)N)NC(=O)[C@H](CCC(N)=O)NC(=O)[C@@H](NC(=O)[C@H](C)NC(=O)[C@@H]1CSSC[C@H](NC(=O)[C@@H](N)CCCCN)C(=O)N[C@@H](CC(N)=O)C(=O)N[C@@H]([C@@H](C)O)C(=O)N[C@@H](C)C(=O)N[C@@H]([C@@H](C)O)C(=O)N1)[C@@H](C)O)C(=O)N[C@@H](C)C(=O)N[C@@H](CC(N)=O)C(=O)N[C@@H](Cc1ccccc1)C(=O)N[C@@H](CC(C)C)C(=O)N[C@H](C(=O)N[C@@H](Cc1c[nH]cn1)C(=O)N[C@@H](CO)C(=O)N[C@@H](CO)C(=O)N[C@@H](CC(N)=O)C(=O)N[C@@H](CCCCN)C(=O)N[C@@H](Cc1ccccc1)C(=O)N1CCC[C@H]1C(=O)N[C@@H](C)C(=O)N1CCC[C@H]1C(=O)N[C@@H](CC(C)C)C(=O)N[C@@H](CO)C(=O)N[C@@H](CO)C(=O)N[C@H](C(=O)N[C@@H](CCCCN)C(=O)N[C@H](C(=O)NCC(=O)N[C@@H](CO)C(=O)N[C@@H](CC(N)=O)C(=O)N[C@H](C(=O)N[C@@H](Cc1ccc(O)cc1)C(N)=O)[C@@H](C)O)C(C)C)[C@@H](C)O)C(C)C [SEQ ID NO: 10] (HELM PEPTIDE1{K.C.N.T.A.T.C.A.T.Q.R.L.A.N.F.L.V.H.S.S.N.K.F.P.A.P.L.S.S.T.K.V.G.S.N.T.Y.[am]}$PEPTIDE1,PEPTIDE1,2:R3-7:R3$$$V2.0) | do not significantly alter amylin or calcitonin receptor activity | 5.01 nM | do not significantly alter amylin or calcitonin receptor activity | 3.39 nM | significantly higher absorbance when compared to both wild-type hIAPP and paramlintide | no aggregates are observed | more substantially soluble than wild-type hIAPP | none of the mutant hIAPP polypeptides forms amyloid |
| CC[C@H](C)[C@H](NC(=O)[C@H](C)NC(=O)CNC(=O)[C@H](Cc1ccccc1)NC(=O)[C@H](CC(N)=O)NC(=O)[C@H](CCCCN)NC(=O)[C@H](CO)NC(=O)[C@H](CO)NC(=O)[C@H](Cc1c[nH]cn1)NC(=O)[C@@H](NC(=O)[C@H](CC(C)C)NC(=O)[C@H](Cc1ccccc1)NC(=O)[C@H](CC(N)=O)NC(=O)[C@H](C)NC(=O)[C@H](CC(C)C)NC(=O)[C@H](CCCNC(=N)N)NC(=O)[C@H](CCC(N)=O)NC(=O)[C@@H](NC(=O)[C@H](C)NC(=O)[C@@H]1CSSC[C@H](NC(=O)[C@@H](N)CCCCN)C(=O)N[C@@H](CC(N)=O)C(=O)N[C@@H]([C@@H](C)O)C(=O)N[C@@H](C)C(=O)N[C@@H]([C@@H](C)O)C(=O)N1)[C@@H](C)O)C(C)C)C(=O)N[C@@H](CC(C)C)C(=O)N[C@@H](CO)C(=O)N[C@@H](CO)C(=O)N[C@H](C(=O)N[C@@H](CC(N)=O)C(=O)N[C@H](C(=O)NCC(=O)N[C@@H](CO)C(=O)N[C@@H](CCCCN)C(=O)N[C@H](C(=O)N[C@@H](Cc1ccc(O)cc1)C(N)=O)[C@@H](C)O)C(C)C)[C@@H](C)O [SEQ ID NO: 7] (HELM PEPTIDE1{K.C.N.T.A.T.C.A.T.Q.R.L.A.N.F.L.V.H.S.S.K.N.F.G.A.I.L.S.S.T.N.V.G.S.K.T.Y.[am]}$PEPTIDE1,PEPTIDE1,2:R3-7:R3$$$V2.0) |  | 2.4 nM |  | 0.741 nM | significantly higher absorbance when compared to both wild-type hIAPP and paramlintide | no aggregates are observed | more substantially soluble than wild-type hIAPP | none of the mutant hIAPP polypeptides forms amyloid |
